Paper PMC8704707 (Pharmaceuticals, 2021)
≈ marks a conversion by molar mass, not a printed value. Structures can show the parent of a compound that is named as a salt. Where two headings read alike, the source gives them in different places.

Assays:
[1] = target: AChE from electric eel (EeAChE) (Electrophorus electricus, UniProt O42275); assay: biochemical; format: biochemical
[2] = target: BuChE from equine serum (EqBuChE) (Equus caballus, UniProt P81908); assay: biochemical
[3] = system: Staphylococcus aureus ATCC 29213; assay: Antibacterial microdilution broth method (EUCAST); format: cell-based
[4] = system: methicillin-resistant Staphylococcus aureus ATCC 43300; assay: Antibacterial microdilution broth method (EUCAST); format: cell-based; conditions: ATCC 43300 / MRSA
[5] = system: Staphylococcus epidermidis ATCC 12228; assay: Antibacterial microdilution broth method (EUCAST); format: cell-based
[6] = system: Enterococcus faecalis ATCC 29212; assay: Antibacterial microdilution broth method (EUCAST); format: cell-based
[7] = system: Escherichia coli ATCC 25922; assay: Antibacterial microdilution broth method (EUCAST); format: cell-based
[8] = system: Acinetobacter baumannii ATCC 19606; assay: Antibacterial microdilution broth method (EUCAST); format: cell-based
[9] = system: Pseudomonas aeruginosa ATCC 27853; assay: Antibacterial microdilution broth method (EUCAST); format: cell-based
[10] = system: Klebsiella pneumoniae ATCC 10031; conditions: for MIC KP 24 h: 24 h incubation; for MIC KP 48 h: 48 h incubation
[11] = ATCC29213, 24 h, read-out: MIC SA 24 h
[12] = ATCC29213, 48 h, read-out: MIC SA 48 h
[13] = ATCC12228, 24 h, read-out: MIC SE 24 h
[14] = ATCC12228, 48 h, read-out: MIC SE 48 h
[15] = ATCC29212, 24 h, read-out: MIC EF 24 h
[16] = ATCC29212, 48 h, read-out: MIC EF 48 h
[17] = ATCC25922, 24 h, read-out: MIC EC 24 h
[18] = ATCC25922, 48 h, read-out: MIC EC 48 h
[19] = ATCC19606, 24 h, read-out: MIC ACI 24 h
[20] = ATCC19606, 48 h, read-out: MIC ACI 48 h
[21] = ATCC27853, 24 h, read-out: MIC PA 24 h
[22] = ATCC27853, 48 h, read-out: MIC PA 48 h
[23] = mean ± SD, n = three independent experiments, ATCh 40 µM, read-out: IC50 AChE
[24] = mean ± SD, n = three independent experiments, BTCh 40 µM, read-out: IC50 BuChE

AChE from electric eel (EeAChE), sequence (O42275 24-633): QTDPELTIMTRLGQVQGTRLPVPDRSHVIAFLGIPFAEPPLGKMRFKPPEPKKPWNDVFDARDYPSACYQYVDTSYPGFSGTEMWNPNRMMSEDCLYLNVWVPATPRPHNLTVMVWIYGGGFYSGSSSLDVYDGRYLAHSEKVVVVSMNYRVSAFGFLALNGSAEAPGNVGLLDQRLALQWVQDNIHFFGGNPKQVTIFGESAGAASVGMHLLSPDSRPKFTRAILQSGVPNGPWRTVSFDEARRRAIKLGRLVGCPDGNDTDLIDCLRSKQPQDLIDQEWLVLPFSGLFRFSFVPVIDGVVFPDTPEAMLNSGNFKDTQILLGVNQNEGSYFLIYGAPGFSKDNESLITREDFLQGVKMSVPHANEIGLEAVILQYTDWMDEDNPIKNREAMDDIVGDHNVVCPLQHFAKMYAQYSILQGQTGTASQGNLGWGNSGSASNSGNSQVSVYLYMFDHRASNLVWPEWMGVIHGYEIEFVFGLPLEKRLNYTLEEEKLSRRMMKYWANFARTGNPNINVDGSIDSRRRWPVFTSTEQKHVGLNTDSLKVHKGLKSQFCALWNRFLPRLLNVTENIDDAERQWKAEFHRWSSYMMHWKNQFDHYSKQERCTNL
BuChE from equine serum (EqBuChE), sequence (P81908 whole entry): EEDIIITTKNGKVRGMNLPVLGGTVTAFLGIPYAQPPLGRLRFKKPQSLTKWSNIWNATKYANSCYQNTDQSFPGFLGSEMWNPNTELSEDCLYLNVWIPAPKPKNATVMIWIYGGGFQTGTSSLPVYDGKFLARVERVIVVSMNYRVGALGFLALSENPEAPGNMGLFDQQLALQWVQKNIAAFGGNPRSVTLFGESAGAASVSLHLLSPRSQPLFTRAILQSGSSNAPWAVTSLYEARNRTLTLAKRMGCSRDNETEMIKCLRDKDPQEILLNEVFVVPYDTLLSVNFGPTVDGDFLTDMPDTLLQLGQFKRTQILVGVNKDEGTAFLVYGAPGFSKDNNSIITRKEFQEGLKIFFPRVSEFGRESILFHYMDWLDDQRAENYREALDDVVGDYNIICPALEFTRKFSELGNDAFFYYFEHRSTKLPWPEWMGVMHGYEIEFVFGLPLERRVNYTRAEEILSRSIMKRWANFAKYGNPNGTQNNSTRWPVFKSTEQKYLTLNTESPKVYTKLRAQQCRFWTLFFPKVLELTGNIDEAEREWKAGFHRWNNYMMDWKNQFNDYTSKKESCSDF

| SMILES | Selectivity AChE/BuChE [1] | MIC [3, 11] [µM] | MIC [3, 12] [µM] | MIC ([4]; 24 h, read-out: MIC MRSA 24 h) [µM] | MIC ([4]; 48 h, read-out: MIC MRSA 48 h) [µM] | MIC [5, 13] [µM] | MIC [5, 14] [µM] | MIC [6, 15] [µM] | MIC [6, 16] [µM] | MIC [7, 17] [µM] | MIC [7, 18] [µM] | MIC [8, 19] [µM] | MIC [8, 20] [µM] | MIC [9, 21] [µM] | MIC [9, 22] [µM] | IC50 [1, 23] [µM] | IC50 [2, 24] [µM] | MIC KP 24 h [10] [µM] | MIC KP 48 h [10] [µM] | further results |
| --- | --- | --- | --- | --- | --- | --- | --- | --- | --- | --- | --- | --- | --- | --- | --- | --- | --- | --- | --- | --- |
| N=C(N/N=C/c1ccc([N+](=O)[O-])o1)N/N=C/c1ccc([N+](=O)[O-])o1 [Compound 3c, (E)-2-[(5-Nitrofuran-2-yl)methylene]-N’-[(E)-(5-nitrofuran-2-yl)methylene]hydrazine-1-carboximidamide hydrochloride] | <0.08 | – | – | – | – | – | – | – | – | – | – | – | – | – | – | – | – | – | – | IC50 [1]: 40 ± 2.56 µM; IC50 ([2]; IC50 BuChE): > 500 µM |
| NC(=O)N/N=C/c1ccc([N+](=O)[O-])o1 [Compound 3d, (E)-2-[(5-Nitrofuran-2-yl)methylene]hydrazine-1-carboxamide] | <0.07 | 62.5 (≈ 12.4 µg/mL) | 125 (≈ 24.8 µg/mL) | 62.5 (≈ 12.4 µg/mL) | 125 (≈ 24.8 µg/mL) | 31.2 (≈ 6.19 µg/mL) | 62.5 (≈ 12.4 µg/mL) | 500 (≈ 99.1 µg/mL) | 500 (≈ 99.1 µg/mL) | 125 (≈ 24.8 µg/mL) | 250 (≈ 49.5 µg/mL) | > 500 | > 500 | > 500 | > 500 | 36.6 ± 0.69 | > 500 | 62.5 (≈ 12.4 µg/mL) | 125 (≈ 24.8 µg/mL) | – |
| [H]/N=C(\N)NN=Cc1cc(Cl)ccc1O [Compound 1g, (E)-2-(5-Chloro-2-hydroxybenzylidene)hydrazine-1-carboximidamide] | 0.83 | 250 (≈ 53.2 µg/mL) | 250 (≈ 53.2 µg/mL) | 500 (≈ 106 µg/mL) | 500 (≈ 106 µg/mL) | 62.5 (≈ 13.3 µg/mL) | 62.5 (≈ 13.3 µg/mL) | 125 (≈ 26.6 µg/mL) | 250 (≈ 53.2 µg/mL) | 500 (≈ 106 µg/mL) | 500 (≈ 106 µg/mL) | 500 (≈ 106 µg/mL) | 500 (≈ 106 µg/mL) | 500 (≈ 106 µg/mL) | 500 (≈ 106 µg/mL) | 37.4 ± 0.73 | 45.2 ± 0.86 | 500 (≈ 106 µg/mL) | 500 (≈ 106 µg/mL) | – |
| [H]/N=C(\N)NN=Cc1c(O)cccc1Cl [Compound 1h, (E)-2-(6-Chloro-2-hydroxybenzylidene)hydrazine-1-carboximidamide] | 0.47 | 250 (≈ 53.2 µg/mL) | 500 (≈ 106 µg/mL) | > 500 | > 500 | 125 (≈ 26.6 µg/mL) | 250 (≈ 53.2 µg/mL) | > 500 | > 500 | > 500 | > 500 | 500 (≈ 106 µg/mL) | 500 (≈ 106 µg/mL) | > 500 | > 500 | 29.5 ± 0.93 | 62.3 ± 1.08 | >500 | >500 | – |
| CCN1CCN(C(=O)N[C@@H](C(=O)N[C@@H]2C(=O)N3[C@@H]2SC(C)(C)[C@@H]3C(=O)O)c2ccccc2)C(=O)C1=O [PIP, piperacillin sodium salt, reference compound] | – | 1.85 | 1.85 | 14.8 | 14.8 | > 59.3 | > 59.3 | 1.85 | 1.85 | 7.41 | 7.41 | > 59.3 | > 59.3 | 14.8 | 14.8 | – | – | >59.31 | >59.31 | – |
| [H]/N=C(\N)NN=Cc1ccc(Cl)cc1O [Compound 1f, (E)-2-(4-Chloro-2-hydroxybenzylidene)hydrazine-1-carboximidamide] | 1.40 | 500 (≈ 106 µg/mL) | 500 (≈ 106 µg/mL) | 500 (≈ 106 µg/mL) | 500 (≈ 106 µg/mL) | 125 (≈ 26.6 µg/mL) | 125 (≈ 26.6 µg/mL) | 500 (≈ 106 µg/mL) | 500 (≈ 106 µg/mL) | 500 (≈ 106 µg/mL) | 500 (≈ 106 µg/mL) | 500 (≈ 106 µg/mL) | 500 (≈ 106 µg/mL) | 500 (≈ 106 µg/mL) | 500 (≈ 106 µg/mL) | 42.8 ± 1.33 | 30.6 ± 1.51 | 500 (≈ 106 µg/mL) | 500 (≈ 106 µg/mL) | – |
| [H]/N=C(\N)NN=Cc1ccco1 [Compound 3a, (E)-2-(Furan-2-ylmethylene)hydrazine-1-carboximidamide] | 0.50 | – | – | – | – | – | – | – | – | – | – | – | – | – | – | 41.1 ± 0.54 | 82.3 ± 3.02 | – | – | – |
| [H]/N=C(\N)NN=Cc1cccc(Cl)c1 [Compound 1c, (E)-2-(3-Chlorobenzylidene)hydrazine-1-carboximidamide] | 1.06 | – | – | – | – | – | – | – | – | – | – | – | – | – | – | – | 41.5 ± 3.06 | – | – | IC50 [1]: 43.9 ± 0.76 µM |
